One test relates to Primary osteoblast cells. In words: Assay of alkaline phosphatase activity in cultured osteoblasts. The test is classed as cell-based, rat. As to the method: Primary osteoblast cultures: Primary osteoblast cells were prepared from calvaria of 18-day-old fetal Sprague-Dawley (SD) rats according to the following method: Pregnant rats were put in anesthesia using intraperitoneal injection of trichloroacetaldehyde (200 mg/kg). The calvaria of the fetal rats were then dissected with aseptic technique. Soft tissues were removed under a dissecting microscope. The calvaria were divided into small pieces and then treated with 0.1% collagenase (Sigma Chemical, St. Louis, Mo.) solution for 10 minutes at 37° C. The cells released from the calvariae by two 20-minute sequential collagenase digestions were pooled and filtered through 70 μm nylon filters (Falcon, BD BioSciences, San Jose, Calif.). The cells were then grown on plastic cell culture dishes in 95:5 air-CO2 with Dulbecco's modified Eagle's medium (DMEM) (Gibco, Grand Island, N.Y.) which was supplemented with 20 mM HEPES and 10% heat-inactivated FCS, 2 mM-glutamine, penicillin (100 U/ml) and streptomycin (100 μg/ml) (pH adjusted to 7.6). The cell medium was changed twice a week. Osteoblasts were confirmed by morphology and expression of alkaline phosphatase (ALP). To examine the maturation of osteoblasts, cells were cultured for up to 14 days in a growth medium containing ascorbic acid (50 μg/ml) (Sigma Chemical, St. Louis, Mo.) and β-glycerophosphate (10 mM) (Sigma Chemical, St. Louis, Mo.) and the medium was changed every 3 day. Assay of alkalinephosphatase activity: Cells cultured in 6-well plates in the presence or absence of Indazole 1 were harvested in 1 ml of 0.2% Nonidet P-40 and cell suspension was disrupted by sonication. After centrifugation at 1500 g for 5 min, ALP activity in the supernatant was measured by the method of Lowry et al (1954) J Biol Chem 207:19–37.

Another test deals with Male SD rats. Briefly: Local injection into proximal tibia, bone histomorphometry (bone growth). Conditions: L-NAME 0.6 nmole/day given with Indazole 1, versus Indazole 1 alone. The test is classed as in vivo, rat. The procedure: Assay of bone resorption of osteoclast: Osteoclast precursors were isolated from rat long bones as mentioned above. The cells were re-suspended in a complete DMEM medium and plated into a calcium phosphate apatite-coated 24-well plate, OAAS (Oscotec, OCT USA Inc.) at 1×10^6 cells/0.5 ml/well. The cells were cultured for 5 days in the presence of M-CSF (20 ng/ml) plus sRANKL (50 ng/ml). Indazole 1 was injected daily for additional 3 days in the absence of M-CSF and sRANKL. Culture was terminated on day 8 and the remaining cells in the plate were lysed using 1 N NaOH. Five images per well were obtained using an inverted microscope (200×), and resorbed area was measured using an image analyzer. Local injection Male SD rats weighing 70–88 gm were used. Implantation of a cannula (22G) was done from the posteriolateral side into the proximal tibial metaphysis in both limbs of rats anesthetized with pentobarbital. The cannula had its outer end in the subcutaneous tissue. Indazole 1 was percutaneously injected through the cannula into the proximal tibia once/day for 1 week. The same concentration of DMSO diluted with normal saline was injected into the right side for comparison. On day 14, the rats were sacrificed and tibiae were fixed in 10% formaldehyde for 48 h at 4° C. Bone histomorphometry: After formalin fixation of tibia was completed, the tibiae were then decalcified in 0.5 N hydrochloric acid, dehydrated in an ascending series of ethanol solution and acetone, and embedded in paraffin. Serial sections (5 μm) were cut longitudinally and stained with Mayer's hematoxylin-eosin solution (Yang et al. (1993) Calcif Tissue Int 52:57–61). Images of the growth plate and proximal tibia were photographed using a photoMicroGraphic Digitize integrate System (MGDS; Total-Integra Technology Co., Ltd., Taipei, Taiwan). Bone volume measurements were performed on the whole secondary spongiosa, which is located under the primary spongiosa and characterized by a network of larger trabeculae. Bone volumes were calculated using an image analysis software. All measurements were done in a single-blind fashion. Bone growth: Male young rats (SD) weighing 70–90 gm were divided into six groups. The average weight of the rats in each group was 73.9±1.1 gm. Indazole 1 was dissolved in DMSO and diluted with saline to a final concentration of 10 μM. One of the six groups was a control group, and the other groups were punctuated with a needle cannula alone, injected with a vehicle using a needle cannula (day 1, once), injected with Indazole 1 (day 1, once), injected with a vehicle using a needle cannula (days 1–7, daily), and injected with Indazole 1 (days 1–7, daily), respectively. […] Trabecular bone in the secondary spongiosa increased by 90% after local injection of Indazole 1 for 7 days.

On to `COC(=O)[C@@]1(OC)C[C@H]2O[C@]1(C)n1c3ccccc3c3c4c(c5c6ccccc6n2c5c31)C(=O)N(C)C4` [KT5823], for which the “effect on the increase of ALP activity by Indazole 1” value (“effect on the increase” for short) in the test on Primary osteoblast cells (KT5823 2 μM) is on record as “antagonized”.
As to `COC(=O)[C@@H](N)CCCNC(=N)N[N+](=O)[O-]` [L-NAME, N^G-nitro-L-arginine-methylester, reference compound], the “effect on enhancement of bone formation in the secondary spongiosa by Indazole 1” value with Male SD rats was “significantly attenuated”. The “effect on the increase” value in the test with Primary osteoblast cells (L-NAME 60 μM) is on record as “antagonized”.
Regarding `O=c1onc2cnc3ccccc3n12` [ODQ], the “effect on the increase” value in the test with Primary osteoblast cells (ODQ 20 μM) is reported as “antagonized”.
